Results taken from patent US20150080292A1 (priority 2013, published 2015).
In brackets after ≈: the same amount, converted by molar mass. Where a SMILES comes first, the peptide text is derived from it. Bridges are numbered along the chain shown (N, C = ends). The star is where a group is joined. Pentadecanoyl = CCCCCCCCCCCCCCC(=O)*; Tridecanoyl = CCCCCCCCCCCCC(=O)*; Myristoyl = CCCCCCCCCCCCCC(=O)*

Tests used:
Fusarium graminearum = settings: LB plates, 28° C.
[1] = solvents in which the compound dissolves
Fusarium oxysporum = experiment: Anti-fungus plate experiment (growth diameter on LB medium with drug); assay type: cell-based; settings: LB plates, 28° C.
Method: (§1) The anti-fungi experiment, with 6 treatments of different drug concentration and three replicates each treatment and sterile water as blank check, was conducted by mixing Locillomycin-A, Locillomycin-B and Locillomycin-C separately into different plates containing LB medium and, then, inoculating pathogenic fungi in the center of the plates, followed by incubation at 28° C. to check the effectiveness of antifungal function. The criteria of the effectiveness were defined as the size of orthogonal cross diameter of the pathogen growth.

Rhizoctonia solani = experiment: as above; assay type: cell-based; settings: LB plates, 28° C.
Method: as §1

Row | Compound | IC50 (Fusarium graminearum) [µg/mL] | IC90 (Fusarium graminearum) [µg/mL] | Solubility [1] | IC50 (Fusarium oxysporum) [µg/mL] | IC90 (Fusarium oxysporum) [µg/mL] | IC50 (Rhizoctonia solani) [µg/mL] | IC90 (Rhizoctonia solani) [µg/mL]
1 | CCCCCCCCCCCCC(=O)NC1C(=O)NC(CCC(N)=O)C(=O)NC(CC(=O)O)C(=O)NCC(=O)NC(CC(N)=O)C(=O)NC(CC(=O)O)C(=O)NCC(=O)NC(Cc2ccc(O)cc2)C(=O)NC(C(C)C)C(=O)OC1C (stereo not drawn) [Locillomycin-A] (Tridecanoyl-TQDGNDGYV; ester 1-C; configuration not given here) | 25.4 (≈ 22.2 µM) | >100 | Methanol, Dimethyl | 12.5 (≈ 10.9 µM) | 56.3 (≈ 49.1 µM) | 15.5 (≈ 13.5 µM) | 45.9 (≈ 40 µM)
2 | CCCCCCCCCCCCCC(=O)NC1C(=O)NC(CCC(N)=O)C(=O)NC(CC(=O)O)C(=O)NCC(=O)NC(CC(N)=O)C(=O)NC(CC(=O)O)C(=O)NCC(=O)NC(Cc2ccc(O)cc2)C(=O)NC(C(C)C)C(=O)OC1C (stereo not drawn) [Locillomycin-B] (Myristoyl-TQDGNDGYV; ester 1-C; configuration not given here) | 22.6 (≈ 19.5 µM) | >100 | Methanol, Dimethyl | 11.6 (≈ 10 µM) | 48.9 (≈ 42.1 µM) | 13.8 (≈ 11.9 µM) | 40.6 (≈ 35 µM)
3 | CCCCCCCCCCCCCCC(=O)NC1C(=O)NC(CCC(N)=O)C(=O)NC(CC(=O)O)C(=O)NCC(=O)NC(CC(N)=O)C(=O)NC(CC(=O)O)C(=O)NCC(=O)NC(Cc2ccc(O)cc2)C(=O)NC(C(C)C)C(=O)OC1C (stereo not drawn) [Locillomycin-C] (Pentadecanoyl-TQDGNDGYV; ester 1-C; configuration not given here) | 21.7 (≈ 18.5 µM) | >100 | Methanol, Dimethyl | 10.3 (≈ 8.77 µM) | 46.8 (≈ 39.9 µM) | 12.4 (≈ 10.6 µM) | 38.6 (≈ 32.9 µM)
